Results published in ChEMBL document CHEMBL1127385, “Synthesis and diuretic activity of alkyl- and arylguanidine analogs of N,N'-dicyclohexyl-4-morpholinecarboxamidine in rats and dogs” (J Med Chem, 1994).
Where “and” joins values, the source holds several entries; their conditions need not be identical. Equal values may be shown once.

What was measured:
Canis familiaris [1] = species on record: Canis familiaris; assay: Systemic cardio vascular Hemodynamics of heart rate was measured in Beagle dogs after giving the dose of MNX; format: functional, Canis lupus familiaris
Canis familiaris [2] = species on record: Canis familiaris; assay: Systemic cardio vascular Hemodynamics of cardiac index was measured in Beagle dogs after giving the dose of MNX plus the drug; format: functional, Canis lupus familiaris, Heart
Canis familiaris [3] = species on record: Canis familiaris; assay: Tissue vascular resistance of large intestine was measured in Beagle dogs after giving the dose of MNX; format: functional, Canis lupus familiaris
Canis familiaris [4] = assay: Total electrolytic excretion of sodium in urine of dogs after peroral administration of 50.8 uM/Kg of drug; format: ADME, organism-based, Canis lupus familiaris; conditions: dog, in vivo, po
Rattus norvegicus [5] = assay: Total electrolytic excretion of sodium in urine of rats after peroral administration of 102 uM/Kg of drug; format: ADME, organism-based; conditions: in vivo, po
Rattus norvegicus [6] = assay: Tested for the diuretic activity by measuring the urinary volume after peroral administering 34.1 uM/Kg of drug in rats; format: ADME, organism-based, Urine; conditions: in vivo, po
Canis familiaris [7] = assay: Total electrolytic excretion of chlorine in urine of dogs after intravenous administration of 9.09 uM/Kg of drug; format: ADME, organism-based, Canis lupus familiaris; conditions: dog, in vivo
Rattus norvegicus [8] = assay: Tested for the diuretic activity by measuring the urinary volume after peroral administering 102 uM/Kg of drug in rats; format: ADME, organism-based, Urine; conditions: in vivo, po
Canis familiaris [9] = assay: Total electrolytic excretion of chlorine in urine of dogs after intravenous administration of 3.03 uM/Kg of drug; format: ADME, organism-based, Canis lupus familiaris; conditions: dog, in vivo
Rattus norvegicus [10] = assay: Ratio of Total electrolytic excretion of sodium and potassium in urine of rats after intravenous administration of 9.09 uM/Kg of drug; format: ADME, organism-based; conditions: in vivo
Canis familiaris [11] = species on record: Canis familiaris; assay: Systemic cardio vascular Hemodynamics of cardiac index was measured in Beagle dogs after giving the dose of MNX; format: functional, Canis lupus familiaris, Heart
Canis familiaris [12] = assay: Total electrolytic excretion of sodium in urine of dogs after peroral administration of 34.1 uM/Kg of drug; format: ADME, organism-based, Canis lupus familiaris; conditions: dog, in vivo, po
Canis familiaris [13] = assay: Total electrolytic excretion of sodium in urine of dogs after intravenous administration of 9.09 uM/Kg of drug; format: ADME, organism-based, Canis lupus familiaris; conditions: dog, in vivo
Canis familiaris [14] = species on record: Canis familiaris; assay: Systemic cardio vascular Hemodynamics of mean arterial pressure was measured in Beagle dogs in pretreatment control group; format: functional, Canis lupus familiaris, Heart
Canis familiaris [15] = species on record: Canis familiaris; assay: Systemic cardio vascular Hemodynamics of cardiac index was measured in Beagle dogs in pretreatment control group; format: functional, Canis lupus familiaris, Heart
Canis familiaris [16] = species on record: Canis familiaris; assay: Tissue vascular resistance of left ventricle was measured in Beagle dogs before treatment after giving the dose of MNX plus the drug; format: functional, Canis lupus familiaris, Heart left ventricle
Canis familiaris [17] = assay: Tested for the diuretic activity by measuring the urinary volume after peroral administering 68.1 uM/Kg of drug in dogs; format: ADME, organism-based, Canis lupus familiaris, Urine; conditions: dog, in vivo, po
Rattus norvegicus [18] = assay: Ratio of Total electrolytic excretion of sodium and potassium in urine of rats after peroral administration of 34.1 uM/Kg of drug; format: ADME, organism-based; conditions: in vivo, po
Rattus norvegicus [19] = assay: Ratio of Total electrolytic excretion of sodium and potassium in urine of rats after peroral administration of 50.8 uM/Kg of drug; format: ADME, organism-based; conditions: in vivo, po
Canis familiaris [20] = assay: Tested for the diuretic activity by measuring the urinary volume after peroral administering 34.1 uM/Kg of drug in dogs; conditions: dog, in vivo, po
Canis familiaris [21] = assay: Total electrolytic excretion of sodium in urine of dogs after intravenous administration of 3.03 uM/Kg of drug; format: ADME, organism-based, Canis lupus familiaris; conditions: dog, in vivo
Canis familiaris [22] = species on record: Canis familiaris; assay: Systemic cardio vascular Hemodynamics of total peripheral resistance was measured in Beagle dogs in pretreatment control group; format: functional, Canis lupus familiaris, Heart
Canis familiaris [23] = species on record: Canis familiaris; assay: Tissue vascular resistance of large intestine was measured in Beagle dogs after giving the dose of MNX plus the drug; format: functional, Canis lupus familiaris
Canis familiaris [24] = assay: Total electrolytic excretion of sodium in urine of dogs after intravenous administration of 34.1 uM/Kg of drug; format: ADME, organism-based, Canis lupus familiaris; conditions: dog, in vivo
Rattus norvegicus [25] = assay: Ratio of Total electrolytic excretion of sodium and potassium in urine of rats after intravenous administration of 34.1 uM/Kg of drug; format: ADME, organism-based; conditions: in vivo
Canis familiaris [26] = assay: Total electrolytic excretion of sodium in urine of dogs after intravenous administration of 30.3 uM/Kg of drug; format: ADME, organism-based, Canis lupus familiaris; conditions: dog, in vivo
Canis familiaris [27] = species on record: Canis familiaris; assay: Tissue vascular resistance of right atrium was measured in Beagle dogs after giving the dose of MNX plus the drug; format: functional, Canis lupus familiaris, Cardiac atrium
Canis familiaris [28] = species on record: Canis familiaris; assay: Systemic cardio vascular Hemodynamics of heart rate was measured in Beagle dogs in pretreatment control group; format: functional, Canis lupus familiaris
Canis familiaris [29] = species on record: Canis familiaris; assay: Tissue vascular resistance of pancreas was measured in Beagle dogs before treatment; format: functional, Canis lupus familiaris
Rattus norvegicus [30] = assay: Total electrolytic excretion of sodium in urine of rats after peroral administration of 341 uM/Kg of drug; format: ADME, organism-based; conditions: in vivo, po
Canis familiaris [31] = assay: Total electrolytic excretion of potassium in urine of dogs after intravenous administration of 3.03 uM/Kg of drug; format: ADME, organism-based, Canis lupus familiaris; conditions: dog, in vivo
Canis familiaris [32] = species on record: Canis familiaris; assay: Tissue vascular resistance of pancreas was measured in Beagle dogs after giving the dose of MNX; format: functional, Canis lupus familiaris
Rattus norvegicus [33] = assay: Total electrolytic excretion of potassium in urine of rats after peroral administration of 50.8 uM/Kg of drug; format: ADME, organism-based; conditions: in vivo, po
Canis familiaris [34] = assay: Tested for the diuretic activity by measuring the urinary volume after peroral administering 34.1 uM/Kg of drug in dogs; format: ADME, organism-based, Canis lupus familiaris, Urine; conditions: dog, in vivo, po
Canis familiaris [35] = species on record: Canis familiaris; assay: Tissue vascular resistance of right atrium was measured in Beagle dogs before treatment; format: functional, Canis lupus familiaris, Cardiac atrium
Canis familiaris [36] = species on record: Canis familiaris; assay: Systemic cardio vascular Hemodynamics of mean arterial pressure was measured in Beagle dogs after giving the dose of MNX plus the drug; format: functional, Canis lupus familiaris, Heart
Canis familiaris [37] = assay: Tested for the diuretic activity by measuring the urinary volume after intravenous administering 30.3 uM/Kg of drug in dogs; format: ADME, organism-based, Canis lupus familiaris, Urine; conditions: dog, in vivo
Canis familiaris [38] = assay: Total electrolytic excretion of chlorine in urine of dogs after intravenous administration of 34.1 uM/Kg of drug; format: ADME, organism-based, Canis lupus familiaris; conditions: dog, in vivo
Rattus norvegicus [39] = assay: Tested for the diuretic activity by measuring the urinary volume after peroral administering 341 uM/Kg of drug in rats; format: ADME, organism-based, Urine; conditions: in vivo, po
Canis familiaris [40] = species on record: Canis familiaris; assay: Systemic cardio vascular Hemodynamics of stroke index was measured in Beagle dogs in pretreatment control group; format: functional, Canis lupus familiaris, Heart
Rattus norvegicus [41] = assay: Ratio of Total electrolytic excretion of sodium and potassium in urine of rats after intravenous administration of 30.3 uM/Kg of drug; format: ADME, organism-based; conditions: in vivo
Canis familiaris [42] = assay: Tested for the diuretic activity by measuring the urinary volume after intravenous administering 34.1 uM/Kg of drug in dogs; format: ADME, organism-based, Canis lupus familiaris, Urine; conditions: dog, in vivo
Canis familiaris [43] = assay: Total electrolytic excretion of chlorine in urine of dogs after peroral administration of 50.8 uM/Kg of drug; format: ADME, organism-based, Canis lupus familiaris; conditions: dog, in vivo, po
Canis familiaris [44] = assay: Total electrolytic excretion of potassium in urine of dogs after intravenous administration of 34.1 uM/Kg of drug; format: ADME, organism-based, Canis lupus familiaris; conditions: dog, in vivo
Canis familiaris [45] = assay: Total electrolytic excretion of chlorine in urine of dogs after intravenous administration of 30.3 uM/Kg of drug; format: ADME, organism-based, Canis lupus familiaris; conditions: dog, in vivo
Canis familiaris [46] = assay: Total electrolytic excretion of chlorine in urine of dogs after peroral administration of 34.1 uM/Kg of drug; format: ADME, organism-based, Canis lupus familiaris; conditions: dog, in vivo, po
Canis familiaris [47] = assay: Total electrolytic excretion of potassium in urine of dogs after intravenous administration of 9.09 uM/Kg of drug; format: ADME, organism-based, Canis lupus familiaris; conditions: dog, in vivo
Canis familiaris [48] = species on record: Canis familiaris; assay: Systemic cardio vascular Hemodynamics of total peripheral resistance was measured in Beagle dogs after giving the dose of MNX; format: functional, Canis lupus familiaris, Heart
Rattus norvegicus [49] = assay: Total electrolytic excretion of chlorine in urine of rats after peroral administration of 102 uM/Kg of drug; format: ADME, organism-based; conditions: in vivo, po
Canis familiaris [50] = assay: Tested for the diuretic activity by measuring the urinary volume after intravenous administering 3.03 uM/Kg of drug in dogs; format: ADME, organism-based, Canis lupus familiaris, Urine; conditions: dog, in vivo
Canis familiaris [51] = assay: Total electrolytic excretion of potassium in urine of dogs after intravenous administration of 30.3 uM/Kg of drug; format: ADME, organism-based, Canis lupus familiaris; conditions: dog, in vivo
Canis familiaris [52] = assay: Total electrolytic excretion of chlorine in urine of dogs after peroral administration of 68.1 uM/Kg of drug; format: ADME, organism-based, Canis lupus familiaris; conditions: dog, in vivo, po
Canis familiaris [53] = assay: Tested for the diuretic activity by measuring the urinary volume after peroral administering 102 uM/Kg of drug in dogs; format: ADME, organism-based, Canis lupus familiaris, Urine; conditions: dog, in vivo, po

Excretion Na+ (Canis familiaris [4]): 11.9 m equiv
Excretion Na+ (Rattus norvegicus [5]): 1.56 m equiv
V (Rattus norvegicus [6]): 6.6 mL
Excretion Cl- (Canis familiaris [7]): 9.6 m equiv
V (Rattus norvegicus [8]): 10 mL
Excretion Cl- (Canis familiaris [9]): 5.4 m equiv
Ratio (Rattus norvegicus [10]): 8.7
Excretion Na+ (Canis familiaris [12]): 9.9 m equiv
Excretion Na+ (Canis familiaris [13]): 11.5 m equiv
V (Canis familiaris [17]): 91 mL
Ratio (Rattus norvegicus [18]): 3.6 and 9.6 and 9.1
Ratio (Rattus norvegicus [19]): 6.1
V (Canis familiaris [20]): 81 mL
Excretion Na+ (Canis familiaris [21]): 8.1 m equiv
Excretion Na+ (Canis familiaris [24]): 18.6 m equiv
Ratio (Rattus norvegicus [25]): 17.4
Excretion Na+ (Canis familiaris [26]): 13.1 m equiv
Excretion Na+ (Rattus norvegicus [30]): 1.73 m equiv
Excretion K+ (Canis familiaris [31]): 1.2 m equiv
Excretion K+ (Rattus norvegicus [33]): 1.9 m equiv
V (Canis familiaris [34]): 77 mL
V (Canis familiaris [37]): 114 mL
Excretion Cl- (Canis familiaris [38]): 16.4 m equiv
V (Rattus norvegicus [39]): 10.2 mL
Ratio (Rattus norvegicus [41]): 8.6
V (Canis familiaris [42]): 132 mL
Excretion Cl- (Canis familiaris [43]): 9.8 m equiv
Excretion K+ (Canis familiaris [44]): 1.3 m equiv
Excretion Cl- (Canis familiaris [45]): 12.5 m equiv
Excretion Cl- (Canis familiaris [46]): 9.4 m equiv
Excretion K+ (Canis familiaris [47]): 1.7 m equiv
Excretion Cl- (Rattus norvegicus [49]): 1.65 m equiv
V (Canis familiaris [50]): 64 mL
Excretion K+ (Canis familiaris [51]): 1.6 m equiv
Excretion Cl- (Canis familiaris [52]): 12.3 m equiv
V (Canis familiaris [53]): 154 mL
SMILES: C1CCC(N=C(NC2CCCCC2)N2CCOCC2)CC1
HR (Canis familiaris [1]): 138 beats min-1
CI (Canis familiaris [2]): 138 mL/min/kg
TVR (Canis familiaris [3]): 116 mmHg·min·g/mL
CI (Canis familiaris [11]): 260 mL/min/kg
MAP (Canis familiaris [14]): 101 mmHg
CI (Canis familiaris [15]): 186 mL/min/kg
TVR (Canis familiaris [16]): 100 mmHg·min·g/mL
TPR (Canis familiaris [22]): 0.56 mmHg·min·kg/mL
TVR (Canis familiaris [23]): 340 mmHg·min·g/mL
TVR (Canis familiaris [27]): 573 mmHg·min·g/mL
HR (Canis familiaris [28]): 87 beats min-1
TVR (Canis familiaris [29]): 118 mmHg·min·g/mL
TVR (Canis familiaris [32]): 43 mmHg·min·g/mL
TVR (Canis familiaris [35]): 635 mmHg·min·g/mL
MAP (Canis familiaris [36]): 118 mmHg
SI (Canis familiaris [40]): 2.2 ml beat-1 kg-1
TPR (Canis familiaris [48]): 0.3 mmHg·min·kg/mL
